Reference: PMC3885546, “Structural Determinants of the 5′-Methylthioinosine Specificity of Plasmodium Purine Nucleoside Phosphorylase” (PLoS ONE, 2014)
Substitutions are numbered along the chain they refer to. Where two headings read alike, the source gives them in different places.

Legend:
TgPNP = conditions: cited from earlier work; for Km / kcat: substrate = label
PfPNP Val66Phe = biological target: T1, PfPNP Val66Phe (Plasmodium falciparum, UniProt Q8I3X4, V66F); experiment: Substrate kinetics, coupled assay; assay type: biochemical; parameters: key to Km / kcat / kcat/Km: (-): Activity not detected under the experimental conditions; conditions: for Km / kcat / kcat/Km: substrate = label
T1 construct: made in house; host or cells: Escherichia coli Top 10
T1 sequence (Q8I3X4 1-245 V66F): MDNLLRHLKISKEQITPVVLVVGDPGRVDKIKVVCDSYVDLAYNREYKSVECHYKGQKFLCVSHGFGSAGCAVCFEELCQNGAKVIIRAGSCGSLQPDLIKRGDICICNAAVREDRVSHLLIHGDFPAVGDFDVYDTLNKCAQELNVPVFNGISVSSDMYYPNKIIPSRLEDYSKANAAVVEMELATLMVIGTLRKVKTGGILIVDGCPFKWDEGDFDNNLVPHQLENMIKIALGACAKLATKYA
Protocol: (§1) Kinetic assays were completed in 50 mM KH2PO4 at pH 7.4 measuring phosphorylysis of inosine or MTI by PNP in a coupled reaction with 60 milliunits/ml xanthine oxidase to convert hypoxanthine to uric acid. Formation of uric acid was measured at 293 nm wavelength (E293 = 12.9 mM^−1 cm^−1), [20]. In cases where activity for MTI was low, increased protein concentration (10 µg/ml) was used to check enzyme function. Assays were performed with excess substrate in the presence of inhibitors. Inhibition studies measured both initial (Ki) and slow onset inhibition (Ki*) for inhibitors. The initial onset inhibition was analyzed by using the following equation: ν ο = (k cat×S)/(K m(1+I/Ki)+S), ν ο is the steady state rate, k cat catalytic rate, S is substrate concentration, Km is Michealis constant for inosine, I is inhibitor concentration, and Ki is the equilibrium dissociation constant.

PfPNP Val73Phe = biological target: T2, PfPNP Val73Phe (Plasmodium falciparum, UniProt Q8I3X4, V73F); experiment: Substrate kinetics, coupled assay; assay type: biochemical; parameters: key: (-): Activity not detected under the experimental conditions; conditions: substrate = label
T2 construct: made in house; host or cells: Escherichia coli Top 10
T2 sequence (Q8I3X4 1-245 V73F): T1 sequence (Q8I3X4 1-245 V66F) with F66V, V73F
Protocol: as §1

PfPNP Arg45Ala = biological target: T3, PfPNP Arg45Ala (Plasmodium falciparum, UniProt Q8I3X4, R45A); experiment: Substrate kinetics, coupled assay; assay type: biochemical; parameters: key: (-): Activity not detected under the experimental conditions; conditions: substrate = label
T3 construct: made in house; host or cells: Escherichia coli Top 10
T3 sequence (Q8I3X4 1-245 R45A): T1 sequence (Q8I3X4 1-245 V66F) with R45A, F66V
Protocol: as §1

PfPNP Asp206Ala = biological target: T4, PfPNP Asp206Ala (Plasmodium falciparum, UniProt Q8I3X4, D206A); experiment: Substrate kinetics, coupled assay; assay type: biochemical; parameters: key: (-): Activity not detected under the experimental conditions; conditions: substrate = label
T4 construct: made in house; host or cells: Escherichia coli Top 10
T4 sequence (Q8I3X4 1-245 D206A): T1 sequence (Q8I3X4 1-245 V66F) with F66V, D206A
Protocol: as §1

PfPNP Met183Ala = biological target: T5, PfPNP Met183Ala (Plasmodium falciparum, UniProt Q8I3X4, M183A); experiment: Substrate kinetics, coupled assay; assay type: biochemical; parameters: key: (-): Activity not detected under the experimental conditions; conditions: substrate = label
T5 construct: made in house; host or cells: Escherichia coli Top 10
T5 sequence (Q8I3X4 1-245 M183A): T1 sequence (Q8I3X4 1-245 V66F) with F66V, M183A
Protocol: as §1

PfPNP Tyr160Phe = biological target: T6, PfPNP Tyr160Phe (Plasmodium falciparum, UniProt Q8I3X4, Y160F); experiment: Substrate kinetics, coupled assay; assay type: biochemical; conditions: for Km / kcat: substrate = label
T6 construct: made in house; host or cells: Escherichia coli Top 10
T6 sequence (Q8I3X4 1-245 Y160F): T1 sequence (Q8I3X4 1-245 V66F) with F66V, Y160F
Protocol: as §1

PfPNP Val66Ser = biological target: T7, PfPNP Val66Ser (Plasmodium falciparum, UniProt Q8I3X4, V66S); experiment: Substrate kinetics, coupled assay; assay type: biochemical; conditions: for Km / kcat: substrate = label
T7 construct: made in house; host or cells: Escherichia coli Top 10
T7 sequence (Q8I3X4 1-245 V66S): T1 sequence (Q8I3X4 1-245 V66F) with F66S
Protocol: as §1

Row | Compound | Km (TgPNP; ref Chaudhary, et al. [18]) | kcat (TgPNP; ref Chaudhary, et al. [18]) | kcat (PfPNP Val66Phe) | Km (PfPNP Val73Phe) | kcat (PfPNP Val73Phe) | kcat/Km (PfPNP Val73Phe) | kcat (PfPNP Arg45Ala) | kcat (PfPNP Asp206Ala) | kcat (PfPNP Met183Ala) | Km (PfPNP Tyr160Phe) | kcat (PfPNP Tyr160Phe) | Km (PfPNP Val66Ser) | kcat (PfPNP Val66Ser) | other results
1 | 5′-methylthioinosine | 31 ± 3 µM | 0.03 ± 0.00 s⁻¹ | (-) | (-) | (-) | (-) | (-) | (-) | (-) | 44 ± 5 µM | 0.30 ± 0.04 s⁻¹ | 0.7 ± 0.7 µM | 0.21 ± 0.05 s⁻¹ | efficiency for MTI when compared to inosine (TgPNP): < 0.5%; Km (PfPNP Val66Phe): (-); kcat/Km (PfPNP Val66Phe): (-); kcat/Km (PfPNP Val66Phe; listed as MTI): no detectable activity; kcat/Km (PfPNP Val73Phe; listed as MTI): no activity; Km (PfPNP Arg45Ala): (-); kcat/Km (PfPNP Arg45Ala): (-); Km (PfPNP Asp206Ala): (-); kcat/Km (PfPNP Asp206Ala): (-); Km (PfPNP Met183Ala): (-); kcat/Km (PfPNP Met183Ala): (-); kcat/Km (PfPNP Met183Ala; listed as MTI): no detectable activity
2 | OC[C@H]1O[C@@H](n2cnc3c(O)ncnc32)[C@H](O)[C@@H]1O [Inosine, inosine] | 13 ± 1 µM | 2.6 ± 0.0 s⁻¹ | 5.7 ± 3.4 s⁻¹ | (-) | (-) | (-) | 0.05 ± 0.03 s⁻¹ | 0.04 ± 0.01 s⁻¹ | 0.4 ± 0.3 s⁻¹ | 2.5 ± 1.2 µM | 0.21 ± 0.02 s⁻¹ | 78 ± 4 µM | 1.4 ± 1.7 s⁻¹ | Ino/MTI kcat/Km Ratio (TgPNP; ref Chaudhary, et al. [18]): 230; Km greater than for wildtype PfPNP (PfPNP Val66Phe): ~100 fold; Km (PfPNP Val66Phe; read-out: Km): 1500 ± 410 µM; Km (PfPNP Arg45Ala; read-out: Km): 470 ± 291 µM; Km (PfPNP Asp206Ala; read-out: Km): 63 ± 6 µM; Km (PfPNP Met183Ala; read-out: Km): 260 ± 64 µM; Ino/MTI kcat/Km Ratio (PfPNP Tyr160Phe): 12; Ino/MTI kcat/Km Ratio (PfPNP Val66Ser): 0.06
